Laboratory results from article PMC6270616, “Antidiabetic and Antioxidant Properties of Alkaloids from Catharanthus roseus (L.) G. Don” (Molecules, 2013).

Target: T1, protein tyrosine phosphatase-1B (PTP-1B) (Homo sapiens, UniProt P18031)
T1 construct: gene PTPN1; recombinant PTP-1B
T1 sequence (P18031 1-435): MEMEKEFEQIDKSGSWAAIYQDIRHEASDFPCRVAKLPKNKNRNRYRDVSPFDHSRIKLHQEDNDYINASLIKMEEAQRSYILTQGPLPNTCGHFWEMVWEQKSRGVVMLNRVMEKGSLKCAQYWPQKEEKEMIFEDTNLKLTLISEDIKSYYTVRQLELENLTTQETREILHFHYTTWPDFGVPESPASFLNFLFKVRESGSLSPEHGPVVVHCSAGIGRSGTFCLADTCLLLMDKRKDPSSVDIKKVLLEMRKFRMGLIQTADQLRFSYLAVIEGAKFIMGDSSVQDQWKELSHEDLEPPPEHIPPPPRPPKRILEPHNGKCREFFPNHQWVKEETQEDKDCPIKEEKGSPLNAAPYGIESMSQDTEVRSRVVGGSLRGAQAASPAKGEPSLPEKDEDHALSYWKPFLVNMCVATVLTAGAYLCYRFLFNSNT
Experiment: pNPP phosphatase assay with recombinant enzyme, absorbance at […] nm
Format: biochemical

**Q.** For `COC(=O)[C@@H]1C[C@@]23C=CCN4CC[C@@]5(c6ccccc6N[C@]15[C@@H]2C)[C@@H]43` [IV, vindolinine], which “pNPP phosphatase assay with recombinant enzyme, absorbance at 405 nm” value is on record?
**A.** compounds II–IV demonstrated good protein tyrosine phosphatase-1B (PTP-1B) inhibition activity
